From patent US11464770B2, “Anticancer pharmaceutical composition” (NATIONAL CANCER CENTER, priority 2016, dated 2022)
“Also recorded” adds a separate entry of the source.

Legend:
[1] = IV and IP single toxicity test in mice; format: in vivo; details: for Percentage (dead subjects), single toxicity evaluation: Mouse
[2] = tested on: KU-19-19: Bladder carcinoma; test: Cell based assay, cytotoxicity in KU19-19 cells; details: Homo sapiens, 72 hours
Description: Commercially available bladder cancer, prostate cancer, lung cancer, breast cancer, blood cancer, pancreatic cancer, colorectal cancer, brain cancer, neuroblastoma, melanoma, liver cancer, cervical carcinoma, ovarian cancer, renal cancer, and papilloma cell lines were each treated with trypsin-EDTA and cultured, followed by being seeded in each well of a 96 well plate. After 24 hours of treatment at constant temperature, the respective cells were treated with the candidate compound so that a final concentration became 0 to 2 μM. The treated cells were additionally cultured for 72 hours, and cell viability was measured by using an ATP detection method (CellTiter-Glo® Luminescent Cell Viability Assay, Promega).

[3] = Cell based assay, cytotoxicity in RT4 papilloma cells (selectivity); set-up: species or system human; details: human; RT4 cells (benign), 72 hours
[4] = IV and IP single toxicity tests at 40 mpk, 40 mg/kg

SMILES	Dead subjects [1, 4]	General symptoms (feed intake, drinking water intake) [1, 4]	Weight changes [1, 4]	Percentage (dead subjects), single toxicity evaluation ([1]; Female, IP 40 mg/kg)	Percentage (dead subjects), single toxicity evaluation ([1]; Female, IV 40 mg/kg)	Percentage (dead subjects), single toxicity evaluation ([1]; Male, IP 40 mg/kg)	Percentage (dead subjects), single toxicity evaluation ([1]; Male, IV 40 mg/kg)	IC50 [2]	IC50 at 72 h [3]
CC(=O)c1c([S+]([O-])Cc2ccccc2)nc2c(Br)ccc(Cl)c2c1O (stereo not drawn) [Compound 4]	No dead subjects were observed	Feeding and drinking water intakes were good, and no other abnormal symptoms were observed	no significant weight changes; also recorded: a weight gain was observed, but weight gain was slightly reduced in some subjects	0 (0/2)	0 (0/2)	0 (0/2)	0 (0/2)		
CC(=O)c1c([S+]([O-])Cc2ccc(-n3cccn3)nc2)[nH]c2c(Br)ccc(Cl)c2c1=O (stereo not drawn) [Compound 99, 2-(((6-(1H-pyrazol-1-yl)pyridin-3-yl)methyl)sulfinyl)-3-acetyl-8-bromo-5-chloroquinolin-4(1H)-one]								1.12 µM	> 10 µM
